Test results published in US20020137929A1, “1 - (3-heterocyclylphenyl) isothiourea, -isourea, -guanidine and -amidine herbicidal agents” (Intellectual Property Department, BASF Aktiengesellschaft, priority 1998, published 2002).

Assays:
[1] = system: IPOHE (Morningglory, Ivyleaf); assay: Preemergence herbicidal evaluation; type: in vivo, Ipomoea hederacea; details: rated 4-5 weeks after treatment, rating scale 0-9
Method in brief: (§1)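 Seeds were planted in potting soil in cups, then sprayed preemergence with the test compound in aqueous acetone at about 0.0156 to 0.500 kg per hectare. Cups were kept under greenhouse conditions and visually rated 4–5 weeks after treatment on a 0–9 scale against an untreated control.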

ZEAMX (Corn, Field) = assay: Preemergence herbicidal evaluation; type: in vivo, Zea mays; details: rated 4-5 weeks after treatment, rating scale 0-9
Method in brief: as §1

CASOB (Sicklepod) [2] = assay: Preemergence herbicidal evaluation; type: in vivo, Cassia obtusifolia; details: rated 4-5 weeks after treatment, rating scale 0-9
Method in brief: as §1

GALAP (Galium) = assay: Postemergence herbicidal evaluation; type: in vivo, Galium aparine; details: postemergence
Method in brief: (§2)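 Compound is applied as a foliar spray to seedlings about two weeks old, formulated in equal parts acetone and water with 0.5% TWEEN 20 and delivered at 40 psi to give about 0.0156–0.500 kg per hectare. Injury is rated visually 0–9 after four to five weeks.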

[3] = system: SAGPY (Arrowhead (Pygmaea)); assay: Preemergence weed control under flooded paddy conditions; type: in vivo, Sagittaria pygmaea; details: rated 3-4 weeks after treatment
Method in brief: (§3)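 Flooded-pot preemergence screen with silt loam and seeds in the upper 0.5 cm. Dose about 0.0313 to 0.500 kg/ha, delivered into flood water; visual 0-9 score after 3 to 4 weeks.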

[4] = system: GLXMAW (Soybean, Williams); assay: Preemergence herbicidal evaluation; type: in vivo, Glycine max, (L.) Merr. cv Williams; details: rated 4-5 weeks after treatment, rating scale 0-9
Method in brief: as §1

MOOVA (Monochoria) = assay: Preemergence weed control under flooded paddy conditions; type: in vivo, Monochoria vaginalis; details: rated 3-4 weeks after treatment
Method in brief: as §3

[5] = system: IPOHE (Morningglory, Ivyleaf); assay: Postemergence herbicidal evaluation; type: in vivo, Ipomoea hederacea; details: postemergence
Method in brief: as §2

AMBEL (Ragweed, Common) = assay: Postemergence herbicidal evaluation; type: in vivo, Ambrosia artemisifolia; details: postemergence
Method in brief: as §2

ECHCG (Barnyardgrass) = assay: Preemergence herbicidal evaluation; type: in vivo, Echinochloa crus-galli; details: rated 4-5 weeks after treatment, rating scale 0-9
Method in brief: as §1

CASOB (Sicklepod) [6] = assay: Postemergence herbicidal evaluation; type: in vivo, Cassia obtusifolia; details: postemergence
Method in brief: as §2

[7] = system: TRZAWR (Wheat, Winter, cv Riband); assay: Preemergence herbicidal evaluation; type: in vivo, Triticum aestivum; details: rated 4-5 weeks after treatment, rating scale 0-9
Method in brief: as §1

ABUTH (Velvetleaf) = assay: Preemergence herbicidal evaluation; type: in vivo, Abutilon theophrasti; details: rated 4-5 weeks after treatment, rating scale 0-9
Method in brief: as §1

Cc1ccc(CN2C(=O)CSC2=Nc2cc(-n3c(=O)cc(C(F)(F)F)n(C)c3=O)c(F)cc2Cl)cc1C [Compound 147, 3-{4-Chloro-5-{[3-(3,4-dimethylbenzyl)-4-oxo-2-thiazolidinylidene]amino}-2-fluorophenyl}-1-methyl-6-(trifluoromethyl)-2,4(1H,3H)-pyrimidinedione]
Preemergence herbicidal rating IPOHE ([1]; rate 0.0156 kg/ha): 0.0 | Preemergence herbicidal rating IPOHE ([1]; rate 0.0313 kg/ha): 0.0 | Preemergence herbicidal rating IPOHE ([1]; rate 0.0625 kg/ha): 0.0 | Preemergence herbicidal rating IPOHE ([1]; rate 0.1250 kg/ha): 0.0 | Preemergence herbicidal rating IPOHE ([1]; rate 0.2500 kg/ha): 0.0 | Preemergence herbicidal rating ZEAMX (ZEAMX (Corn, Field); rate 0.0156 kg/ha): 1.0 | Preemergence herbicidal rating ZEAMX (ZEAMX (Corn, Field); rate 0.0313 kg/ha): 1.0 | Preemergence herbicidal rating ZEAMX (ZEAMX (Corn, Field); rate 0.0625 kg/ha): 0.0 | Preemergence herbicidal rating ZEAMX (ZEAMX (Corn, Field); rate 0.1250 kg/ha): 1.0 | Preemergence herbicidal rating ZEAMX (ZEAMX (Corn, Field); rate 0.2500 kg/ha): 2.0 | Preemergence herbicidal rating CASOB (CASOB (Sicklepod) [2]; rate 0.0156 kg/ha): 0.0 | Preemergence herbicidal rating CASOB (CASOB (Sicklepod) [2]; rate 0.0313 kg/ha): 0.0 | Preemergence herbicidal rating CASOB (CASOB (Sicklepod) [2]; rate 0.0625 kg/ha): 0.0 | Preemergence herbicidal rating CASOB (CASOB (Sicklepod) [2]; rate 0.1250 kg/ha): 0.0 | Preemergence herbicidal rating CASOB (CASOB (Sicklepod) [2]; rate 0.2500 kg/ha): 5.0 | herbicidal rating GALAP (GALAP (Galium); rate 0.0156 kg/ha): 0.0 | herbicidal rating GALAP (GALAP (Galium); rate 0.0313 kg/ha): 1.0 | herbicidal rating GALAP (GALAP (Galium); rate 0.0625 kg/ha): 3.0 | herbicidal effect rating, SAGPY ([3]; 0.0313 kg/ha): 0.0 | herbicidal effect rating, SAGPY ([3]; 0.0625 kg/ha): 0.0 | herbicidal effect rating, SAGPY ([3]; 0.1250 kg/ha): 0.0 | herbicidal effect rating, SAGPY ([3]; 0.2500 kg/ha): 2.0 | Preemergence herbicidal rating GLXMAW ([4]; rate 0.0156 kg/ha): 1.0 | Preemergence herbicidal rating GLXMAW ([4]; rate 0.0313 kg/ha): 0.0 | Preemergence herbicidal rating GLXMAW ([4]; rate 0.0625 kg/ha): 0.0 | Preemergence herbicidal rating GLXMAW ([4]; rate 0.1250 kg/ha): 0.0 | Preemergence herbicidal rating GLXMAW ([4]; rate 0.2500 kg/ha): 1.0 | herbicidal effect rating, MOOVA (MOOVA (Monochoria); 0.0313 kg/ha): 7.0 | herbicidal effect rating, MOOVA (MOOVA (Monochoria); 0.0625 kg/ha): 9.0 | herbicidal effect rating, MOOVA (MOOVA (Monochoria); 0.1250 kg/ha): 9.0 | herbicidal effect rating, MOOVA (MOOVA (Monochoria); 0.2500 kg/ha): 9.0 | herbicidal rating IPOHE ([5]; rate 0.0156 kg/ha): 9.0 | herbicidal rating IPOHE ([5]; rate 0.0313 kg/ha): 9.0 | herbicidal rating IPOHE ([5]; rate 0.0625 kg/ha): 9.0 | herbicidal rating AMBEL (AMBEL (Ragweed, Common); rate 0.0156 kg/ha): 6.0 | herbicidal rating AMBEL (AMBEL (Ragweed, Common); rate 0.0313 kg/ha): 9.0 | herbicidal rating AMBEL (AMBEL (Ragweed, Common); rate 0.0625 kg/ha): 7.0 | Preemergence herbicidal rating ECHCG (ECHCG (Barnyardgrass); rate 0.0156 kg/ha): 0.0 | Preemergence herbicidal rating ECHCG (ECHCG (Barnyardgrass); rate 0.0313 kg/ha): 0.0 | Preemergence herbicidal rating ECHCG (ECHCG (Barnyardgrass); rate 0.0625 kg/ha): 0.0 | Preemergence herbicidal rating ECHCG (ECHCG (Barnyardgrass); rate 0.1250 kg/ha): 0.0 | Preemergence herbicidal rating ECHCG (ECHCG (Barnyardgrass); rate 0.2500 kg/ha): 0.0 | herbicidal rating CASOB (CASOB (Sicklepod) [6]; rate 0.0156 kg/ha): 1.0 | herbicidal rating CASOB (CASOB (Sicklepod) [6]; rate 0.0313 kg/ha): 1.0 | herbicidal rating CASOB (CASOB (Sicklepod) [6]; rate 0.0625 kg/ha): 2.0 | Preemergence herbicidal rating TRZAWR ([7]; rate 0.0156 kg/ha): 0.0 | Preemergence herbicidal rating TRZAWR ([7]; rate 0.0313 kg/ha): 0.0 | Preemergence herbicidal rating TRZAWR ([7]; rate 0.0625 kg/ha): 0.0 | Preemergence herbicidal rating TRZAWR ([7]; rate 0.1250 kg/ha): 0.0 | Preemergence herbicidal rating TRZAWR ([7]; rate 0.2500 kg/ha): 0.0 | Preemergence herbicidal rating ABUTH (ABUTH (Velvetleaf); rate 0.0156 kg/ha): 0.0 | Preemergence herbicidal rating ABUTH (ABUTH (Velvetleaf); rate 0.0313 kg/ha): 0.0 | Preemergence herbicidal rating ABUTH (ABUTH (Velvetleaf); rate 0.0625 kg/ha): 0.0 | Preemergence herbicidal rating ABUTH (ABUTH (Velvetleaf); rate 0.1250 kg/ha): 4.0 | Preemergence herbicidal rating ABUTH (ABUTH (Velvetleaf); rate 0.2500 kg/ha): 7.0

COc1ccc(CN2C(=O)CSC2=Nc2cc(-n3c(=O)cc(C(F)(F)F)n(C)c3=O)c(F)cc2Cl)c(OC)c1 [Compound 139, 3-{4-Chloro-5-{[3-(2,4-dimethoxybenzyl)-4-oxo-2-thiazolidinylidene]amino}-2-fluorophenyl}-1-methyl-6-(trifluoromethyl)-2,4(1H,3H)-pyrimidinedione]
Preemergence herbicidal rating IPOHE ([1]; rate 0.0156 kg/ha): 0.0 | Preemergence herbicidal rating IPOHE ([1]; rate 0.0313 kg/ha): 0.0 | Preemergence herbicidal rating IPOHE ([1]; rate 0.0625 kg/ha): 2.0 | Preemergence herbicidal rating IPOHE ([1]; rate 0.2500 kg/ha): 2.0 | Preemergence herbicidal rating ZEAMX (ZEAMX (Corn, Field); rate 0.0156 kg/ha): 0.0 | Preemergence herbicidal rating ZEAMX (ZEAMX (Corn, Field); rate 0.0313 kg/ha): 0.0 | Preemergence herbicidal rating ZEAMX (ZEAMX (Corn, Field); rate 0.0625 kg/ha): 0.0 | Preemergence herbicidal rating ZEAMX (ZEAMX (Corn, Field); rate 0.1250 kg/ha): 0.0 | Preemergence herbicidal rating ZEAMX (ZEAMX (Corn, Field); rate 0.2500 kg/ha): 1.0 | Preemergence herbicidal rating CASOB (CASOB (Sicklepod) [2]; rate 0.0156 kg/ha): 0.0 | Preemergence herbicidal rating CASOB (CASOB (Sicklepod) [2]; rate 0.0313 kg/ha): 0.0 | Preemergence herbicidal rating CASOB (CASOB (Sicklepod) [2]; rate 0.0625 kg/ha): 1.0 | Preemergence herbicidal rating CASOB (CASOB (Sicklepod) [2]; rate 0.1250 kg/ha): 2.0 | Preemergence herbicidal rating CASOB (CASOB (Sicklepod) [2]; rate 0.2500 kg/ha): 1.0 | herbicidal rating GALAP (GALAP (Galium); rate 0.0156 kg/ha): 1.0 | herbicidal rating GALAP (GALAP (Galium); rate 0.0313 kg/ha): 3.0 | herbicidal rating GALAP (GALAP (Galium); rate 0.0625 kg/ha): 4.0 | herbicidal effect rating, SAGPY ([3]; 0.0313 kg/ha): 0.0 | herbicidal effect rating, SAGPY ([3]; 0.0625 kg/ha): 0.0 | herbicidal effect rating, SAGPY ([3]; 0.1250 kg/ha): 0.0 | herbicidal effect rating, SAGPY ([3]; 0.2500 kg/ha): 0.0 | Preemergence herbicidal rating GLXMAW ([4]; rate 0.0156 kg/ha): 0.0 | Preemergence herbicidal rating GLXMAW ([4]; rate 0.0313 kg/ha): 1.0 | Preemergence herbicidal rating GLXMAW ([4]; rate 0.0625 kg/ha): 0.0 | Preemergence herbicidal rating GLXMAW ([4]; rate 0.1250 kg/ha): 0.0 | Preemergence herbicidal rating GLXMAW ([4]; rate 0.2500 kg/ha): 1.0 | herbicidal effect rating, MOOVA (MOOVA (Monochoria); 0.0313 kg/ha): 4.0 | herbicidal effect rating, MOOVA (MOOVA (Monochoria); 0.0625 kg/ha): 5.0 | herbicidal effect rating, MOOVA (MOOVA (Monochoria); 0.1250 kg/ha): 7.0 | herbicidal effect rating, MOOVA (MOOVA (Monochoria); 0.2500 kg/ha): 7.0 | herbicidal rating IPOHE ([5]; rate 0.0156 kg/ha): 9.0 | herbicidal rating IPOHE ([5]; rate 0.0313 kg/ha): 9.0 | herbicidal rating IPOHE ([5]; rate 0.0625 kg/ha): 5.0 | herbicidal rating AMBEL (AMBEL (Ragweed, Common); rate 0.0156 kg/ha): 9.0 | herbicidal rating AMBEL (AMBEL (Ragweed, Common); rate 0.0313 kg/ha): 9.0 | herbicidal rating AMBEL (AMBEL (Ragweed, Common); rate 0.0625 kg/ha): 7.0 | Preemergence herbicidal rating ECHCG (ECHCG (Barnyardgrass); rate 0.0156 kg/ha): 1.0 | Preemergence herbicidal rating ECHCG (ECHCG (Barnyardgrass); rate 0.0313 kg/ha): 0.0 | Preemergence herbicidal rating ECHCG (ECHCG (Barnyardgrass); rate 0.0625 kg/ha): 0.0 | Preemergence herbicidal rating ECHCG (ECHCG (Barnyardgrass); rate 0.1250 kg/ha): 1.0 | Preemergence herbicidal rating ECHCG (ECHCG (Barnyardgrass); rate 0.2500 kg/ha): 1.0 | herbicidal rating CASOB (CASOB (Sicklepod) [6]; rate 0.0156 kg/ha): 4.0 | herbicidal rating CASOB (CASOB (Sicklepod) [6]; rate 0.0313 kg/ha): 5.0 | herbicidal rating CASOB (CASOB (Sicklepod) [6]; rate 0.0625 kg/ha): 9.0 | Preemergence herbicidal rating TRZAWR ([7]; rate 0.0156 kg/ha): 0.0 | Preemergence herbicidal rating TRZAWR ([7]; rate 0.0313 kg/ha): 0.0 | Preemergence herbicidal rating TRZAWR ([7]; rate 0.0625 kg/ha): 0.0 | Preemergence herbicidal rating TRZAWR ([7]; rate 0.1250 kg/ha): 0.0 | Preemergence herbicidal rating TRZAWR ([7]; rate 0.2500 kg/ha): 1.0 | Preemergence herbicidal rating ABUTH (ABUTH (Velvetleaf); rate 0.0156 kg/ha): 0.0 | Preemergence herbicidal rating ABUTH (ABUTH (Velvetleaf); rate 0.0313 kg/ha): 0.0 | Preemergence herbicidal rating ABUTH (ABUTH (Velvetleaf); rate 0.0625 kg/ha): 0.0 | Preemergence herbicidal rating ABUTH (ABUTH (Velvetleaf); rate 0.1250 kg/ha): 9.0 | Preemergence herbicidal rating ABUTH (ABUTH (Velvetleaf); rate 0.2500 kg/ha): 9.0
